The values that follow come from patent US20230121771A1, “A PHARMACEUTICAL COMBINATION OF AN ARTEMISININ COMPOUND, 5-AMINOLEVULINIC ACID OR METHYL-5-AMINOLEVULINIC ACID AND A CHEMOTHERAPEUTIC AGENT” (JLP Health GmbH, priority 2020, published 2023).

Type in all cases: cell-based
Experiment [1] concerns mouse ESCs. Kind of experiment: Cell survival of artemisinin treated mouse embryonic stem cells (Alamar Blue, 48 h). The conditions noted are these: artemisinin combined with acifluorfen or 5-ALA (0.5 mM). The method, then:
(§1) For dosage responses, cells were seeded in 96-wells (25.000/ 96-well, in triplicate -where indicated) and subjected to compounds for 48 h. Cell viability was assessed using automated cell counting (high-throughput flow cytometry), Alamar Blue staining (Invitrogen, DAL1100) or CellTiter-Glo Luminescent Assay (Promega, G7570, according to the manufacturer’s protocol) respectively.

The test system of experiment [2] is murine and human cancer cell lines. Kind of experiment: Cell viability of artemisinin treated cancer cell lines in presence and absence of 5-ALA (Alamar Blue, 48 h). The settings on record: 4T1, Mcf7, B16F10, 5-ALA 0.5 mM. The method, then:
as §1
Background: Alamar Blue is a resazurin reagent that responds to reducing activity.

Experiment [3] relates to neuroblastoma cells (SHSY5Y), Jurkat and HL-60 cells. Briefly: ROS levels by Dihydroethidium (DHE) staining and flow cytometry in cell lines. The conditions noted are these: SHSY5Y and Jurkat cells; artemisinin 0.5 µM, 5-ALA 0.25 mM. The method, then:
Treated cells were collected, washed with 1x HBSS (without Ca2+ and Mg2+), incubated with 1mM DHE (Dihydroethidium (Hydroethidine), Invitrogen, D11347) in 1x HBSS for 45 min at 37° C., washed twice and counterstained with DAPI or a viability dye (eBioscience™ Fixable Viability Dye eFluor™ 780, 65-0865-18) for 10 min on ice. Cells were then collected, strained and analysed using flow cytometry for DHE in the red fluorescent spectrum (PE channel).

Experiment [4] has as its system Jurkat cells. Briefly: JC-1 staining of mitochondrial membrane potential. The settings on record: 48 h, artemisinin 0.5 µM, 5-ALA 0.25 mM. The method, then: Cells were collected, washed with 1xPBS, incubated with 2 µM JC-1 in 1PBS (MitoProbe JC-1 Assay Kit-1, Invitrogen, M34152) for 35 min at 37° C., washed twice, and analysed using flow cytometry in the red (PE channel) and green (FITC channel) fluorescence spectrum.

Experiment [5] has as its system human cerebral tumor organoids (CNS-PNET). Kind of experiment: Compound profiling in CNS-PNET cerebral tumor organoids (GFP-positive tumor cells). The method, then:
Tumor initiation was induced by either oncogene amplification, using a Sleeping Beauty (SB) transposase, or mutation of tumor suppressor genes, using the CRISPR-Cas9 system in day 10 old embryoid bodies (EBs). Plasmids carrying the transposase as well as GFP and the desired oncogenes or expressing Cas9 nuclease were introduced by electroporation. In brief, a mixture of 1 μg DNA and 100 μl nucleofector solution was added to 10 EBs and transferred to a nucleofection cuvette. The Lonza Nucleofector 2b and the A-023 program were used for electroporation/ nucleofection. Thereafter, EBs were transferred into 10 cm dishes containing differentiation media containing vitamin A and embedded into Matrigel 24 hours later. Two different types of tumors were initiated {Bian:2018gs}: Central nervous system primitive neuroectodermal tumors (CNS-PNET) were induced by the overexpression of Myc. Glioblastoma-like tumor group 2 (GBM-2) was caused by mutagenesis of the tumor suppressor genes p53, NF1 and PTEN. All plasmids were designed by Shan Bian {Bian, S. et al. Genetically engineered cerebral organoids model brain tumor formation. Nat. Methods 15, 631-639 (2018)}. Cerebral tumor organoids were treated with different compounds and the survival and growth of transformed as well as untransformed neurons was monitored. Fluorescence labeling of tumor cells allowed clear distinguishability of transformed cells as compared to non-labeled throughout the experiment using brightfield microscopy, as well as fluorescence imaging. The transformed tumor tissue and untransformed neurons within the same organoid was monitored using fluorescence imaging, as well as brightfield microscopy throughout the experiment. At the endpoint of the treatment (d5 or d7 respectively), the number of GFP-positive cells was assessed by flow cytometry. Cerebral (tumor) organoids were enzymatically and mechanically dissociated using 1x trypsin, 35-45 min incubation at 37° C., and gentle shaking. […] Single cells in suspension were counterstained with DAPI or a viability dye (eBioscienceTM Fixable Viability Dye eFluorTM 780, 65-0865-18), and analysed using flow cytometry (BD LSRFortessa HTS Cell Analyzer). The amounts of GFP-positive cells were analyzed. […] Brightfield and green fluorescence images were taken from the same area. Additionally, for image analyses, the Celldiscoverer 7 (Zeiss), a fully integrated high-end automated live cell imaging system, was used. Cerebral organoids were fixed in 4% PFA (room temperature, 1 h), incubated with 30% sucrose (4° C., o/n), OCT (Tissue-tek OCT Compound, […], 4583) embedded and 20 μm sections were cryostat cut (-12/-14° C.). […] Fluorescence Mounting Medium (Dako, S302380) was used for mounting the sample slides. […]

Regarding `NCC(=O)CCC(=O)O` [5-ALA, 5-amino-4-oxopentanoic acid], the “susceptibility to artemisinin (cell survival)” value in experiment [1] is recorded as “increased the sensitivity to the anti-malarial compound”. Moreover, the “sensitivity to artemisinin under combinatorial treatment with 5-ALA” value in experiment [2] was “gained hypersensitive to artemisinin”. Also, in experiment [3], the “ROS levels (DHE staining, MFI)” value is recorded as “triggered ROS”. Further, the “mitochondrial polarisation (ΔΨm, JC-1)” value in experiment [4] is listed as “increased mitochondrial polarisation”. Moreover, in experiment [5], the “GFP+ tumor tissue, immunohistochemistry of sectioned organoids” value was “losss of GFP+ tumor tissue”. For the same compound, the “effect on non-transformed neuronal tissues in the cerebral organoids” value in experiment [5] (Sox2 expressing cells, rosette-like structures) was “no apparent effect on the non-transformed neuronal tissues”. Further, in experiment [5] (very high concentrations, compound alone), the “growth of GFP-positive tumor organoids” value was “notable growth inhibition”.
